From paper PMC6934184, “Selective DNA-PKcs inhibition extends the therapeutic index of localized radiotherapy and chemotherapy” (The Journal of Clinical Investigation, 2019)

Biological target: T1, CDK1/cyclin A2 (Homo sapiens, UniProt P06493)
T1 construct: purchased Thermo Fisher Scientific (Life Technologies) SelectScreen
Test: SelectScreen LanthaScreen
Assay type: binding
Details: 1 µM
Procedure, shortened: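 Percent values come from Thermo SelectScreen profiling of NU5455, combining activity and binding assays. CSF1R was run in Z'LYTE format at Km app ATP, and CAMK1 in Adapta format with ATP listed at 10.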

T1 sequence (P06493 whole entry): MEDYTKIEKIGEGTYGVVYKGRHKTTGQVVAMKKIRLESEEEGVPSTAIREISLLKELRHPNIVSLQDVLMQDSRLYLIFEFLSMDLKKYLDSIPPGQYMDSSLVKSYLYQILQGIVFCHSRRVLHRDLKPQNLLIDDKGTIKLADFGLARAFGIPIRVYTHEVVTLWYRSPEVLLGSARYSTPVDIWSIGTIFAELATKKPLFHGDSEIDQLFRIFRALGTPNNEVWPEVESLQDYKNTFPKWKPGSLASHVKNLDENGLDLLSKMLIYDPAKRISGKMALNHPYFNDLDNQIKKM
T1 sequence (P20248 whole entry partner): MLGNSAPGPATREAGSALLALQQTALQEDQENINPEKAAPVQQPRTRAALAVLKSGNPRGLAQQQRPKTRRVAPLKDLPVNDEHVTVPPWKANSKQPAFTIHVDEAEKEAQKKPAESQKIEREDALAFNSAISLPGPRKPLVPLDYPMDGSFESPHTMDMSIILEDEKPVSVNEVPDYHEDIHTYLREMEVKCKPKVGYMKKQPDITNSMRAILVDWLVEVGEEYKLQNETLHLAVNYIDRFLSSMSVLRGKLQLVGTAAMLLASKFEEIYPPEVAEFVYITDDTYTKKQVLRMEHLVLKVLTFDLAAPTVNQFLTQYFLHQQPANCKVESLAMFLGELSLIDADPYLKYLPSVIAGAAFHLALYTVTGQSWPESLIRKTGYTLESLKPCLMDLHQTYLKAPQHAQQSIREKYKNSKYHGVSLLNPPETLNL

SMILES: CN(C(=O)CN1CCOCC1)c1ccc2sc3c(-c4cccc5c(=O)cc(N6CC7CCC(C6)O7)oc45)cccc3c2c1 [NU5455]
- % displacement: 3.3%
